{"source": "patent US20230364205A1", "about": "“COMPOSITIONS AND METHODS FOR TREATING SERRATED COLORECTAL CANCER” (SANFORD BURNHAM PREBYS MEDICAL DISCOVERY INSTITUTE, priority 2020, published 2023)", "key": {"ZKO organoids": {"system": "ZKO organoids", "test": "interferon response of ZKO (PKCζ-lacking) small intestine organoids to 5-AZA-CdR", "type": "cell-based, mouse", "description": "(§1) For generation of small intestine organoids, organoids were collected in ice-cold TrypLE solution (e.g., Life Technologies) to remove Matrigel, then pipetted 5 cycles and incubated 5 min at 37° C. to obtain single-cell suspension. Cells were washed twice in PBS 3% FBS and resuspended at room temperature with PBS with 100 μg/ml DNase I for 10 min before staining with anti-H-2Kb (clone AF6-88.5.5.3; eBioscience). For antigen presentation in MODE-K cells, cells were washed in PBS, trypsinized and wash with warm medium. Then, cells were resuspended and stained with anti-H-2Kk (clone 36-7-5; BioLegend) and anti-H-2Dk (clone 15-5-5; BD Pharmingen). Dead cells were excluded after 7-AAD staining. All flow cytometry experiments were performed on a BD LSRFortessa 14-colors analyzer at the Sanford Burnham Prebys Medical Discovery Institute Shared FACS Facility and flow cytometry data were analyzed using FlowJo software (Tree Star Inc.).\n(§2) Intestinal epithelial cell […] isolation was performed as described previously Llado et al., Repression of Intestinal Stem Cell Function and Tumorigenesis through Direct Phosphorylation of β-catenin and Yap by PKCζ. Cell Reports (2015) 10,740-754, with some modification. […] Adenoma fragments were counted after isolation and a total of 250-500 fragments were mixed with 100 μl of growth factor reduced-Matrigel and plated in 12- or 24-well plates. […]"}, "WT organoids": {"system": "WT organoids", "test": "interferon response of WT small intestine organoids to 5-AZA-CdR", "type": "cell-based, mouse", "description": "as §1, §2"}, "DKO^IEC mouse tumors": {"system": "DKO^IEC mouse tumors", "test": "TGF-βR1-specific inhibition experiment (galunisertib) in DKO^IEC mice", "type": "in vivo", "description": "For CD8+ T cell depletion (FIG. 4, Panels A-L), 10-week-old LKO^IEC mice were injected intraperitoneally with 200 μg of anti-CD8 antibody (clone 2.43) or control IgG twice a week for 5 weeks until they were sacrificed. For the TGF-βR1-specific inhibition experiment, 10-week-old DKO^IEC mice were treated twice a day with a dose of 10 mg of galunisertib (Tauriello et al., 2018) per os for 6 weeks until they were sacrificed. Control mice were treated with vehicle. For checkpoint immunotherapy, either 10-week-old or 13-week-old DKO^IEC mice were injected intraperitoneally with a dose of 10 mg/kg (body mass) of anti-PD-L1 antibody (clone 6E11) twice a week for 3 weeks until they were sacrificed. For the combination therapy of anti-PD-L1 antibody and TGF-βR1-specific inhibitor, 23-week-old DKO^IEC mice were treated twice a day with a dose of 10 mg of galunisertib per os and injected intraperitoneally with a dose of 10 mg/kg (body mass) of anti-PD-L1 antibody twice a week for 3 weeks until they were sacrificed. Anti-PD-L1 antibody was provided by de Sauvage FJ (Genentech).\nOrgans were isolated, rinsed in ice-cold PBS, fixed in 10% neutral buffered formalin overnight at 4° C., dehydrated, and embedded in paraffin. Sections (5 μm) were stained with hematoxylin and eosin (H&E). For immunohistochemistry, sections were deparaffinized, rehydrated, and then treated for antigen retrieval. After blocking in Protein Block Serum-Free solutions (DAKO), tissues were incubated with primary antibody overnight at 4° C. followed by incubation with biotinylated secondary antibody. Endogenous peroxidase was quenched in 3% H2O2 in water for 10 min at room temperature. Antibodies were visualized with avidin/biotin complex (e.g., Vectastain Elite; Vector Laboratories) using diaminobenzidine as the chromogen. For immunofluorescence, fresh frozen organs were embedded in Tissue-Tek OCT compound (e.g., Sakura) and section of 10 μm were fixed in methanol, washed with PBS and then incubated with the primary antibodies. Washed sections were incubated with Alexa-conjugated secondary antibodies (e.g., Life Technologies) and examined with a Zeiss LSM 710 NLO Confocal Microscope. In situ hybridization for murine Ereg was carried out using RNAscope Multiplex Fluorescent Assay kit (Advanced Cell Diagnostics) following manufacturer's instructions. The probe corresponding to CDS region of murine Ereg (Accession #: NM_007950.2, probe region: 116-1496; Advanced Cell Diagnostics; Cat #: 437981). Cell death was analyzed using the In-Situ Cell Death Detection kit, TMR red (Thermo) for TUNEL. Masson's Trichrome staining was carried out following manufacturer's instructions (Sigma HT15-1KT).\nFlow cytometry experiments were performed using fresh small intestinal tissue and organoid preparations. For the analyses of small intestinal tissue, a half part of duodenum, jejunum, and ileum was used for quantitative flow cytometry analysis of immune cell population of lamina propria. Briefly, small intestines were rinsed in cold PBS, minced into small pieces, incubated in HBSS with EDTA (5 mM) and digested with collagenase (0.05 mg/ml) for 30 min at 37° C., followed by a discontinuous Percoll separation method (40 and 75%) to purify immune cells. The cells concentrated at the interface were collected and washed in cold PBS. Red blood cells were removed with lysing buffer (BD Pharm Lyse) and live cells were counted using Trypan blue and then saturated with mouse Fc Block (purified anti-mouse CD16/CD32; 1:50; clone 2.4G2; BD Pharmingen) 30 min at 4° C. before incubating with specific dyed antibodies.\nFor IL-17A intracellular staining, cells were pretreated with 50 ng/ml of phorbolmyristate acetate and 500 ng/ml of ionomycin in the presence of 10 μg/ml of brefeldin A for 3 hr at 37° C. 5% CO2. […]"}, "[1]": {"system": "serrated aPKC-DKO^IEC tumors", "test": "PVHA treatment of aPKC-DKO^IEC mice", "type": "in vivo, mouse", "description": "Mice treatment with PVHA: For the hyaluronidase-specific inhibition experiment, 11-week-old aPKC-DKO^IEC mice were injected intravenously twice per week with a low dose of 0.0375 mg or high dose of 0.2 mg/Kg of PVHA (Halozyme) for 3 weeks until they were sacrificed. Control mice were treated with vehicle.\nHistology, immunohistochemistry: Organs were isolated, rinsed in ice-cold PBS, fixed in 10% neutral buffered formalin overnight at 4° C., dehydrated, and embedded in paraffin. For Masson TriChrome staining, the sections (5 μm) were deparaffinized, rehydrated, and then stained with the Trichrome Stain (Masson) Kit (Sigma-Aldrich, #HT15) following the manufacturer's instructions. For hyaluronan staining, sections (5 μm) were deparaffinized, rehydrated, and then incubated with biotinylated hyaluronan binding protein (Millipore Sigma, #385911) overnight at 4° C., followed by incubation with streptavidin HRP conjugate (Invitrogen, #434323). Staining was developed using diaminobenzidine. For CD8 staining, sections (5 μm) were deparaffinized, rehydrated, and then treated for antigen retrieval (Citrate, pH6) with heat. After blocking in Protein Block Serum-Free solutions (DAKO), tissues were incubated with primary antibody (anti-mouse CD8 (BD, #557654) overnight at 4° C. followed by incubation with biotinylated secondary antibody. Endogenous peroxidase was quenched in 3% H2O2 in water for 10 min at room temperature. Antibodies were visualized with avidin/biotin complex (Vectastain Elite; Vector Laboratories) using diaminobenzidine as the chromogen."}, "[2]": {"settings": "3 μM for 24 hours, then drug-free culture, qRT-PCR"}, "[3]": {"settings": "10-week-old DKO^IEC mice, 10 mg per os twice a day for 6 weeks"}, "[4]": {"settings": "aPKC-DKO^IEC mice, i.v. twice per week for 3 weeks from week 11"}}, "note": "“Also recorded” adds a separate entry of the source.", "data": [{"compound": "Nc1ncn([C@H]2C[C@H](O)[C@@H](CO)O2)c(=O)n1", "note": "[5-AZA-CdR, 5-aza-2-deoxycytidine]", "values": [{"measurement": "expression of interferon-responsive genes Irf7, Oas1a, Isg15, and Cxcl10", "setting": "ZKO organoids; [2]", "value": "severely abrogated"}, {"measurement": "MHC class I long-chain H-2K^b on the surface", "setting": "ZKO organoids; flow cytometry", "value": "but not on ZKO organoids"}, {"measurement": "expression of interferon-responsive genes Irf7, Oas1a, Isg15, and Cxcl10", "setting": "WT organoids; [2]", "value": "robustly induced"}, {"measurement": "MHC class I long-chain H-2K^b on the surface", "setting": "WT organoids; flow cytometry", "value": "upregulated"}]}, {"compound": "Cc1cccc(-c2nn3c(c2-c2ccnc4ccc(C(N)=O)cc24)CCC3)n1", "note": "[galunisertib]", "values": [{"measurement": "incidence of invasive cancer", "setting": "DKO^IEC mouse tumors; [3]", "value": "reduced"}, {"measurement": "progression of SSA/P to the adenocarcinoma stage", "setting": "DKO^IEC mouse tumors; [3]", "value": "suppressed"}, {"measurement": "tumor load", "setting": "DKO^IEC mouse tumors; [3]", "value": "did not reduce"}, {"measurement": "tumor number", "setting": "DKO^IEC mouse tumors; [3]", "value": "did not reduce"}, {"measurement": "tumor size", "setting": "DKO^IEC mouse tumors; [3]", "value": "did not reduce"}, {"measurement": "proportion of PD-L1+/CD45+ cells infiltrating DKO^IEC tumors", "setting": "DKO^IEC mouse tumors; CD45/PD-L1 staining", "value": "not affected"}, {"measurement": "collagen deposition", "setting": "DKO^IEC mouse tumors; Masson's trichrome staining of small intestinal tumors, DKO^IEC mice", "value": "inhibition"}, {"measurement": "proportion of CD8+ T cells", "setting": "DKO^IEC mouse tumors; flow cytometry, DKO^IEC tumors", "value": "did not significantly change"}, {"measurement": "proportion of CD11b+ myeloid cells", "setting": "DKO^IEC mouse tumors; flow cytometry, DKO^IEC tumors", "value": "did not significantly change"}, {"measurement": "proportion of Th17 cells in the tumors", "setting": "DKO^IEC mouse tumors; flow cytometry, DKO^IEC tumors", "value": "reduction"}, {"measurement": "proportion of Treg cells", "setting": "DKO^IEC mouse tumors; flow cytometry, DKO^IEC tumors", "value": "did not significantly change"}, {"measurement": "expression of TGF-β-responsive genes, such as Angptl2, Cdkn2b, Il11, and Ereg", "setting": "DKO^IEC mouse tumors; qRT-PCR mRNA levels, DKO^IEC mice", "value": "reduced expression"}, {"measurement": "stromal phospho-SMAD2", "setting": "DKO^IEC mouse tumors; staining of small intestinal tumors, DKO^IEC mice", "value": "inhibition"}]}, {"compound": "Pegvorhyaluronidase alfa [PVHA]", "values": [{"measurement": "progression of SSA/Ps to the adenocarcinoma stage", "setting": "[1]; 11-week-old aPKC-DKO^IEC mice, i.v. twice per week for 3 weeks, low and high dose", "value": "suppressed"}, {"measurement": "number of CD8+ T cells stained in the tumor tissue (infiltration of CD8+ T cells)", "setting": "[1]; CD8 staining of small intestinal tumors, compared to vehicle-treated samples", "value": "substantially increased; also recorded: increases"}, {"measurement": "collagen deposition in the tumors", "setting": "[1]; Masson trichrome staining of small intestinal tumors", "value": "reduced"}, {"measurement": "tumor load", "setting": "[1]; [4]", "value": "reduced"}, {"measurement": "tumor number", "setting": "[1]; [4]", "value": "reduced"}, {"measurement": "tumor size", "setting": "[1]; [4]", "value": "reduced"}, {"measurement": "serrated tumors in aPKC-DKO^IEC mice", "setting": "[1]; figure legends FIG. 17 and FIG. 18", "value": "reduces"}, {"measurement": "incidence of invasive cancer", "setting": "[1]; high dose of 0.2 mg/Kg, i.v. twice per week for 3 weeks from week 11", "value": "reduced"}, {"measurement": "tumor burden", "setting": "[1]; high dose of PVHA", "value": "reduce tumor burden substantially"}, {"measurement": "hyaluronan deposition in the tumors", "setting": "[1]; hyaluronan staining of small intestinal tumors, low dose of PVHA (0.0375 mg/kg)", "value": "reduced"}, {"measurement": "incidence of invasive cancer", "setting": "[1]; low dose of 0.0375 mg, i.v. twice per week for 3 weeks from week 11", "value": "reduced"}, {"measurement": "tumor burden", "setting": "[1]; low dose of PVHA", "value": "reduce tumor burden substantially"}]}]}
